Test system: PBMC from HLA-DQ2+ coeliac subjects
Assay: Interferon gamma ELISPOT, hordein 20mer first round library after barley challenge
Assay type: cell-based, human
Parameters: key to individual peptide showing maximal response in a single individual (asterisk): *: an asterisk indicates the eight individual peptides showing maximal response in a single individual
Settings: for number of subjects with > 70% maximal response / subjects with at least 40% maximal peptide response: 17 subjects
Description: Peptides were initially dissolved in aqueous acetonitrile (50%). Peptides in aqueous acetonitrile were transferred to sterile 96-well plates and diluted in sterile PBS with 1 mM calcium (250 mcg/ml) and then incubated with tTG (25 mcg/ml) (Sigma T5398) for 6 h 37° C. and then stored frozen (−20° C.) until use.
IFNγ ELISpot assays (Mabtech, Sweden) were performed in 96-well plates (MAIP S-45, Millipore) in which each well contained 25 mcl of peptide solution and 100 mcl of PBMC (2-8×10^5/well) in RPMI containing 10% heat inactivated human AB serum. After development and drying, IFNγ ELISpot plates were assessed using the MAIP automated ELISpot plate counter. Data was then analysed according to a novel algorithm (Expectation Maximization: EM) to define and quantify interferon-gamma responses to 9mer sequences contained within the peptide library (see FIG. 3 and below). 9mer peptides were then rationalised according to an algorithm that assumes redundancy in T-cell recognition, the “IterativeCluster” algorithm (see FIG. 4 and below), by allowing groups of amino acids with similar chemical properties at any one position in the 9mer, or for glutamate to replace glutamine at any position (assuming deamidation may have occurred).
Secalin and hordein 20mer first round peptide libraries were assessed 3 days after completing rye (bread, 100 g/d for 3 days) or barley (boiled, 100 g/d for 3 days) challenge (“day 6” PBMC interferon gamma ELISPOT responses). Although iterative analysis using 2nd and 3rd round peptide libraries to define epitopes has not yet been performed, the 20mers pre-treated with tTG found to induce “potent” responses shared substantial structural similarity to the bioactive peptides identified after wheat challenge. […] The dominant (>70% maximal response) 20mer after rye challenge was usually […] (SEQ ID NO: 1769) (8/14 subjects), or occasionally […] (SEQ ID NO: 1770) (4/14), […] (SEQ ID NO: 1771) (1/14), […] (SEQ ID NO: 1772) (1/14) and/or […] (SEQ ID NO: 1773) (1/14). Additional peptides noted for greater than 40% maximal response in at least 1 subject include:
Typically, the dominant peptides after barley challenge included one of six peptide motifs, or were one of eight other individual 20mers “dominant” in only one of 17 subjects after barley challenge. The six motifs identified:
The barley hordein peptides showing at least 40% maximal peptide response in at least one subject include the following, wherein an asterisk indicates the eight individual peptides showing maximal response in a single individual: […]

Sequence | number of subjects with > 70% maximal response | subjects with at least 40% maximal peptide response | individual peptide showing maximal response in a single individual (asterisk)
QQPFPLQPQQPFPQPQPFPQ (Description of Artificial Sequence: Synthetic gluten peptide) [barley hordein 20mer] | 0 | 1/17 | –
QPQPYPQQPQPYPQQPFQPQ (Description of Artificial Sequence: Synthetic gluten peptide) [barley hordein 20mer] | 2 | 7/17 | –
PQPYPQQPQPFPQQPPFCQQ (Description of Artificial Sequence: Synthetic gluten peptide) [barley hordein 20mer] | 1 | 1/17 | *
FPQYQIPTPLQPQQPFPQQP (Description of Artificial Sequence: Synthetic gluten peptide) [barley hordein 20mer] | 1 | 2/17 | –
QGSEQIIPQQPQQPFPLQPH (Description of Artificial Sequence: Synthetic gluten peptide) [barley hordein 20mer] | 3 | 7/17 | *
QSQQQFPQPQQPFPQQPQQP (Description of Artificial Sequence: Synthetic gluten peptide) [barley hordein 20mer] | 0 | 1/17 | –
WQPQQPFPQPQQPFPLQPQQ (Description of Artificial Sequence: Synthetic gluten peptide) [barley hordein 20mer] | 5 | 9/17 | *
YPQQPQPFPQQPIPQQPQPY (Description of Artificial Sequence: Synthetic gluten peptide) [barley hordein 20mer] | 2 | 6/17 | –
QPQQPFPQPQQPIPYQPQQP (Description of Artificial Sequence: Synthetic gluten peptide) [barley hordein 20mer] | 1 | 4/17 | *
VSPHPGQQTTVSPHQGQQTT (Description of Artificial Sequence: Synthetic gluten peptide) [barley hordein 20mer] | 1 | 1/17 | *
QKYPEQPQQPFPWQQPTIQL (Description of Artificial Sequence: Synthetic gluten peptide) [barley hordein 20mer] | 1 | 1/17 | –
PFPQQPQQPFPQPQQPFRQQ (Description of Artificial Sequence: Synthetic gluten peptide) [barley hordein 20mer] | 3 | 6/17 | –
QQQPFPQQPIPQQPQPYPQQ (Description of Artificial Sequence: Synthetic gluten peptide) [barley hordein 20mer] | 2 | 8/17 | –
PQGSEQIIPQQPFPLQPQPF (Description of Artificial Sequence: Synthetic gluten peptide) [barley hordein 20mer] | 1 | 2/17 | –
QQPFPQPQQPIPYQPQQPFN (Description of Artificial Sequence: Synthetic gluten peptide) [barley hordein 20mer] | 1 | 5/17 | –

From patent US10105437B2, “Epitopes related to coeliac disease” (BTG International Limited, priority 2004, dated 2018)
